From patent EP4667458A1 (Kanaph Therapeutics Inc., priority 2023, dated 2024)

Key:
[1] = system: lung cancer cell line NCI-H358 having the KRAS G12C variant; test: Cell viability (Cell Titer-Glo) on combined administration, NCI-H358; assay type: cell-based
Description: When the example compound was used in combination with an anticancer agent, the effect on the growth ability of cancer cells expressing KRAS variant or EGFR variant was confirmed. In order to confirm the effect of the example compound in combination with a MEK inhibitor or a KRAS G12C inhibitor in the cell line having the KRAS variant, the cell growth inhibitory effect by the treatment of the example compound in combination with a MEK inhibitor or a KRAS G12C inhibitor was confirmed in the gastric cancer cell line SNU-1 and the pancreatic cancer cell line KP4 having the KRAS G12D variant, the lung cancer cell line NCI-H358 and the pancreatic cancer cell line MIA PaCa-2 having the KRAS G12C variant, the colorectal cancer cell line SW480 having the KRAS G12V variant, the lung cancer cell line A549 having the KRAS G12S variant, the colorectal cancer cell line LoVo having the KRAS G13D variant. In addition, in order to confirm the effect of the example compound in combination with an EGFR inhibitor in the cell line having the EGFR variant, the cell growth inhibitory effect by the treatment of the example compound in combination with an EGFR inhibitor was confirmed in the lung cancer cell line H1975 having the EGFR L858R/T790M variant and the lung cancer cell line HCC827 having the EGFR Del19 variant. […]

[2] = molecular target: T1, KRAS^G12C::SOS1 (Homo sapiens, UniProt Q07889); test: KRAS G12C::SOS1 protein-protein interaction (PPI) inhibition assay (HTRF binding kit)
T1 sequence (Q07889 1-1333): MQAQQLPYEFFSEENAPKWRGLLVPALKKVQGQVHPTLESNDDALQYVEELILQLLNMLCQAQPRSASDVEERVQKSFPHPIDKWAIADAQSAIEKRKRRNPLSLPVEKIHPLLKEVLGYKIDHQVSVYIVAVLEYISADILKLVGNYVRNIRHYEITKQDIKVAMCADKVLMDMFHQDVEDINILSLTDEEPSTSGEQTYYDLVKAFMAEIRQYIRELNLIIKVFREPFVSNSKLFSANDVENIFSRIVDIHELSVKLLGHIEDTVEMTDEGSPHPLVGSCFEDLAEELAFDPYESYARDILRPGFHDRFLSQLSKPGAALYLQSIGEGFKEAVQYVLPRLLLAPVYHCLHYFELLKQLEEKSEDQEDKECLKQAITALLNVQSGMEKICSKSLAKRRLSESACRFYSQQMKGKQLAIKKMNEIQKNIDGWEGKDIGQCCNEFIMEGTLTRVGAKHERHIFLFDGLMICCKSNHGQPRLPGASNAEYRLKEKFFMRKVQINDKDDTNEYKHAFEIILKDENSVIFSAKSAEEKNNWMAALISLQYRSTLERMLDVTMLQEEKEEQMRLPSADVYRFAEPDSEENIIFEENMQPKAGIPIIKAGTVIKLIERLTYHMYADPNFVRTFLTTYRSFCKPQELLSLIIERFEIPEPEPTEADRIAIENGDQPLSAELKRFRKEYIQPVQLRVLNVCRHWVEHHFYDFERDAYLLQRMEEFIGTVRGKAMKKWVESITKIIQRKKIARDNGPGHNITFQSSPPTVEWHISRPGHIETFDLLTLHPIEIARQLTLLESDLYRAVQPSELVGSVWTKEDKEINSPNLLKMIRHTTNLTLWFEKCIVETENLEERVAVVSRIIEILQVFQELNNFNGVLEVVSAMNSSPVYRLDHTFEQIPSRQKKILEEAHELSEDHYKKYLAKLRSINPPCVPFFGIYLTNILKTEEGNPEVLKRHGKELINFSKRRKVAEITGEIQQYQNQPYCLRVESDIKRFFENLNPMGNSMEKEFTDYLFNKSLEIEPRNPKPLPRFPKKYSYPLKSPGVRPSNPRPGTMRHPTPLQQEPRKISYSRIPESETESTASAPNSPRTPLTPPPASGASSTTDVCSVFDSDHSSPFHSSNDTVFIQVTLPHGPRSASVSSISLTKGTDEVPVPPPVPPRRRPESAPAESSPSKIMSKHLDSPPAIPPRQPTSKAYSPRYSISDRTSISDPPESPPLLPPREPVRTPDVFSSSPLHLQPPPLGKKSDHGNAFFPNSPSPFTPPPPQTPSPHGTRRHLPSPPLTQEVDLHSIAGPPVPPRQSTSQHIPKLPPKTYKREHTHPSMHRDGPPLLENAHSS
Description: Protein-protein interaction between SOS1 and KRAS^G12C was detected using KRAS G12C/SOS1 binding kit from CISBIO (64KRASG12PEH, CISBIO, FRANCE) according to the manufacturer's assay method. Briefly, the maximum concentration of an inhibitor sample was set to be 3 µM, and the inhibitor sample was diluted 7 times by 1/3, and samples having a total of 8 concentrations were prepared. In HTRF (Homogeneous Time-Resolved Fluorescence) exclusive 96-well low-volume white plate (66PL96005, CISBIO, FRANCE), 2 µL of an inhibitor sample prepared for each concentration, 5 µL of a mixed solution of Tag1-labeled KRAS^G12C protein and GTP diluted with the dilution solution provided by the manufacturer, and 5 µL of Tag2 labeled SOS1 protein were mixed, and added with 8 µL of a diluted solution where anti-Tag1 KRAS^G12C XL665 (HTRF acceptor) labeled antibody and anti-Tag2 SOS1 Terbium cryptate (HTRF donor) labeled antibody were mixed in an equal ratio and incubated at room temperature for 2 h.

[3] = molecular target: T2, SOS1 (Homo sapiens, UniProt Q07889); test: SOS-catalyzed nucleotide exchange assay (HTRF, SOS1-mediated GTP loading of KRAS G12D); assay type: biochemical; conditions: GST-KRAS G12D, HIS-SOS1cat, EDA-GTP-DY-647P1; compound 128 pM to 10 µM; read-out: SOS-catalyzed nucleotide exchange assay (IC50 range, Grade)
T2 construct: adding equal amounts of HIS-SOS1cat (160 nM; Cytoskeleton, US); His; purchased Cytoskeleton, US
T2 sequence (Q07889 564-1049 limits assumed): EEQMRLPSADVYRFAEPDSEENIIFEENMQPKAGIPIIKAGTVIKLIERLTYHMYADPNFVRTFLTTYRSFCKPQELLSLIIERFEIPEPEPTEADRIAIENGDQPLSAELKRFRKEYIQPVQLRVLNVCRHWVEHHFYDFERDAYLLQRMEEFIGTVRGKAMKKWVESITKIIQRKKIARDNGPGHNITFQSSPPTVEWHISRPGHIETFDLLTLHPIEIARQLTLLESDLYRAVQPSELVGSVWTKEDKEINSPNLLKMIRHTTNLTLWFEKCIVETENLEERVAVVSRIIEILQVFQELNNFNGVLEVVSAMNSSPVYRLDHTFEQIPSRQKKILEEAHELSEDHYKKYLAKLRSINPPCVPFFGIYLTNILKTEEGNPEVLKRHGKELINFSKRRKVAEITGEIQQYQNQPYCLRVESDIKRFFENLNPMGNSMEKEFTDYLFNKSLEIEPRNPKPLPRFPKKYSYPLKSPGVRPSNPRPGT
How it was run: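 SOS1cat (HIS-tagged) preincubated 10 min at room temperature with compound (128 pM-10 µM), then GST-KRAS G12D with anti-GST terbium added; GTP loading tracked as HTRF with a DY-647P1 GTP analogue after 30 min, buffer HEPES pH 7.4. GEF-free wells for normalization; IC50 derived.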

Compound | cell viability ([1]; INK-128 (3.2-100 nM) in combination with Example 295 (0-300 nM) compared to INK-128 alone, 72 h, FIG. 1) | cell viability ([1]; sotorasib (0.14-10 nM) in combination with Example 295 (0-300 nM) compared to sotorasib alone, FIG. 2) | IC50 [2] | IC50 [3]
CNCc1ccc(Cl)cc1-c1ccc([C@@H](C)NC(=O)c2ccc(=O)n(-c3ccccc3F)n2)s1 [Example 295, N-[(1R)-1-[5-[5-chloro-2-(methylaminomethyl)phenyl]-2-thienyl]ethyl]-1-(2-fluorophenyl)-6-oxo-pyridazine-3-carboxamide] | decreased | decreased | < 1000 nM | –
C[C@@H](NC(=O)c1ccc(=O)n(-c2cc(CO)ccc2F)n1)c1cc(N)cc(C(F)(F)F)c1 [Example 159, N-[(1R)-1-[3-amino-5-(trifluoromethyl)pheny 1]ethyl]-1-[2-fluoro-5-(hydroxymethyl)phenyl] -6-oxo-pyridazine-3-carboxamide] | – | – | < 1000 nM | < 1000 nM
C[C@@H](NC(=O)c1ccc(=O)n(-c2cccnc2F)c1)c1cc(N)cc(C(F)(F)F)c1 [Example 148, N-[(1R)-1-[3-amino-5-(trifluoromethyl)phenyl]ethyl]-1-(2-fluoro-3-pyridyl)-6-oxo-pyridine-3-carboxamide] | – | – | > 10000 nM | > 10000 nM
COc1ccc(-n2nc(C(=O)N[C@H](C)c3cc(N)cc(C(F)(F)F)c3)ccc2=O)c(F)c1 [Example 152, N-[(1R)-1-[3-amino-5-(trifluoromethyl)phenyl]ethyl]-1-(2-fluoro-4-methoxy-phenyl)-6-oxo-pyridazine-3-carboxamide] | – | – | < 1000 nM | < 1000 nM
CCn1nncc1-c1cccc(-n2cc(C(=O)N[C@H](C)c3cccc(C(F)(F)F)c3F)ccc2=O)c1 [Example B04, N-[(R)-1-[2-fluoro-3-(trifluoromethyl)phenyl]ethyl]-1-[m-(1-ethyl-1H-1,2,3-triazol-5-yl)phenyl]-6-oxo-1,6-dihydronicotinamide] | – | – | < 1000 nM | < 1000 nM
Cc1cc(C(=O)N[C@H](C)c2cc(N)cc(C(F)(F)F)c2F)nn(-c2cncc(-c3cnnn3C)c2)c1=O [Example B03, N-[(1R)-1-[5-amino-2-fluoro-3-(trifluoromethyl)phenyl]ethyl]-5-methyl-1-[5-(3-methyltriazol-4-yl)-3-pyridyl]-6-oxo-pyridazine-3-carboxamide] | – | – | < 1000 nM | < 1000 nM
